This test deals with NCI-H1417 complex spheroids, growth % test/control. The test can be described thus: Anticancer human tumor NCI-H1417 cell line growth inhibition [Asc].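 For all read-outs here: spheroids exposed to compounds for 7 days.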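 For viability, T/C: 100% = DMSO vehicle control wells.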 The conditions noted are these: for viability, T/C: stronger effect = lower value. In short, it runs like this:
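Tumor cells were grown as multicellular spheroids with stromal HUVEC and mesenchymal stem cells and treated singly or in combination. Concentrations fell in half-log steps from the clinical Cmax, or from 10 microM where none was known.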

pIC50: −log10 of the molar value. “And” between values parts separate entries of the source, which are not always exact repeats. Equal entries are not always repeated. A value given as a limit tells only on which side of the number the result lay.

In the case of `CCN1C(C(=O)NC23CCC(C(=O)O)(CC2)CC3)C(c2cccc(Cl)c2F)C2(C(=O)Nc3cc(Cl)ccc32)C12CCCCC2` (centres undefined), the viability, T/C (as a rule, the ratio of treated to control) is 102% and 109% (compound 0.00949 µM); 102% [middle of 15 runs] (compound 0.03 µM); 101% [middle of 15 runs] (compound 0.0949 µM); 97.9% [middle of 15 runs] (compound 0.3 µM); 93.4% [middle of 15 runs] (compound 3 µM). The pIC50 (in general, the negative decadic logarithm of the IC50, by convention in mol/L) runs as follows: (compound alone, run of 10/11/2022) below 5.52; (curve of compound) below 5.52.
Regarding `NC(=O)C(=Cn1cnc(-c2cc(C(F)(F)F)cc(C(F)(F)F)c2)n1)c1cncnc1` + CNC(C)C(=O)NC1CN(S(=O)(=O)c2cccc(S(=O)(=O)N3CCC4CCC(C(=O)NC(c5ccccc5)c5ccccc5)N4C(=O)C(NC(=O)C(C)NC)C3)c2)CCC2CCC(C(=O)NC(c3ccccc3)c3ccccc3)N2C1=O, the pIC50 was below 6.52 (curve of first compound, second compound 0.01 µM); 6.52 (curve of first compound, second compound 0.0316 µM); 6.56 (curve of first compound, second compound 0.1 µM); 6.58 (curve of first compound, second compound 0.316 µM); 6.60 (curve of first compound, second compound 1 µM). In addition, the viability, T/C (second compound 0.01 µM, first compound 0.000949 µM) was 103%; the viability, T/C (second compound 0.01 µM, first compound 0.003 µM) was 93.3%; the viability, T/C (second compound 0.01 µM, first compound 0.00949 µM) is 99.5%; the viability, T/C (second compound 0.01 µM, first compound 0.03 µM) was 103%; the viability, T/C (second compound 0.01 µM, first compound 0.0949 µM) is 89.6%; the viability, T/C (second compound 0.01 µM, first compound 0.3 µM) is 63.3%. For the same compound, the viability, T/C is 111% (second compound 0.0316 µM, first compound 0.000949 µM); 94.2% (second compound 0.0316 µM, first compound 0.003 µM); 93% (second compound 0.0316 µM, first compound 0.00949 µM); 102% (second compound 0.0316 µM, first compound 0.03 µM); 83.5% (second compound 0.0316 µM, first compound 0.0949 µM); 49.6% (second compound 0.0316 µM, first compound 0.3 µM). For the same compound, the viability, T/C by setting is: (second compound 0.1 µM, first compound 0.000949 µM) 89.3%; (second compound 0.1 µM, first compound 0.003 µM) 104%; (second compound 0.1 µM, first compound 0.00949 µM) 105%; (second compound 0.1 µM, first compound 0.03 µM) 90.2%; (second compound 0.1 µM, first compound 0.0949 µM) 76%; (second compound 0.1 µM, first compound 0.3 µM) 47.8%. Further, the viability, T/C is 110% (second compound 0.316 µM, first compound 0.000949 µM); 98.7% (second compound 0.316 µM, first compound 0.003 µM); 112% (second compound 0.316 µM, first compound 0.00949 µM); 92.2% (second compound 0.316 µM, first compound 0.03 µM); 86.7% (second compound 0.316 µM, first compound 0.0949 µM); 45.1% (second compound 0.316 µM, first compound 0.3 µM). The viability, T/C reads like this: (second compound 1 µM, first compound 0.000949 µM) 91.5%; (second compound 1 µM, first compound 0.003 µM) 92.7%; (second compound 1 µM, first compound 0.00949 µM) 93%; (second compound 1 µM, first compound 0.03 µM) 94.8%; (second compound 1 µM, first compound 0.0949 µM) 86.9%; (second compound 1 µM, first compound 0.3 µM) 42.6%.
Take `COc1c(OCCCN2CCOCC2)ccc2c3n(c(=NC(=O)c4cnc(N)nc4)nc12)CCN3`: the viability, T/C is 94.5% and 101% and 96.7% (compound 0.00316 µM); 100% and 96.2% and 99% (compound 0.01 µM); 82.9% and 83.8% and 91.8% (compound 0.0316 µM); 76.9% and 73.8% and 90.3% (compound 0.1 µM); 69% and 70.4% and 77.1% (compound 0.316 µM); 54.8% and 47.9% and 64% (compound 1 µM). Further, the pIC50 (curve of compound) is below 6.00.

The record behind these values is PubChem BioAssay AID1963440 (Molecular Pharmacology Branch, DTP, NCI, 2024).
